Reference: the supplement of paper PMC4862054

Assays:
Test in all cases: normalised viability (% of control), CellTiter-Blue; higher = more viable cells (about 100 = DMSO control)
[1] = tested on: BT-549; settings: 100 nM; incubation time: 72 h
Outline: (§1)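 Normalised viability is given for a single listed concentration of the series. In 384-well plates, breast cancer cell lines were incubated 72 h with compound, then read with CellTiter-Blue (2 h, 37 °C) at 560/590 nm. Per-plate scaling set vehicle to 100 and a positive kill control to 0, with Z'-factor quality control.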

[2] = tested on: CAL-148; settings: 10 nM; incubation time: 72 h
Outline: as §1

[3] = tested on: CAL-85-1; settings: 10 nM; incubation time: 72 h
Outline: as §1

[4] = tested on: HCC1937; settings: 100 nM; incubation time: 72 h
Outline: as §1

[5] = tested on: HDQ-P1; settings: 10 nM; incubation time: 72 h
Outline: as §1

[6] = tested on: MDA-MB-231; settings: 100 nM; incubation time: 72 h
Outline: as §1

[7] = tested on: MDA-MB-468; settings: 100 nM; incubation time: 72 h
Outline: as §1

[8] = tested on: SK-BR-3; settings: 100 nM; incubation time: 72 h
Outline: as §1

[9] = tested on: BT-474; settings: incubation time: 72 h
Outline: as §1

[10] = tested on: BT-549; settings: incubation time: 72 h
Outline: as §1

[11] = tested on: CAL-120; settings: incubation time: 72 h
Outline: as §1

[12] = tested on: CAL-148; settings: incubation time: 72 h
Outline: as §1

[13] = tested on: CAL-51; settings: incubation time: 72 h
Outline: as §1

[14] = tested on: DU-4475; settings: incubation time: 72 h
Outline: as §1

[15] = tested on: HCC1599; settings: incubation time: 72 h
Outline: as §1

[16] = tested on: HCC1937; settings: incubation time: 72 h
Outline: as §1

[17] = tested on: HDQ-P1; settings: incubation time: 72 h
Outline: as §1

[18] = tested on: Hs578T; settings: incubation time: 72 h
Outline: as §1

[19] = tested on: MDA-MB-436; settings: incubation time: 72 h
Outline: as §1

[20] = tested on: MFM-223; settings: incubation time: 72 h
Outline: as §1

[21] = tested on: SK-BR-3; settings: incubation time: 72 h
Outline: as §1

[22] = tested on: CAL-148; settings: 300 nM; incubation time: 72 h
Experimental: (§2)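 DSRT, CellTiter-Blue viability, 72 h incubation. Signal is normalised to DMSO and benzethonium chloride controls. Value is the normalised response at dose 6.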

[23] = tested on: CAL-51; settings: 300 nM; incubation time: 72 h
Experimental: as §2

[24] = tested on: CAL-85-1; settings: 300 nM; incubation time: 72 h
Experimental: as §2

[25] = tested on: DU-4475; settings: 300 nM; incubation time: 72 h
Experimental: as §2

[26] = tested on: HDQ-P1; settings: 300 nM; incubation time: 72 h
Experimental: as §2

[27] = tested on: MDA-MB-453; settings: 300 nM; incubation time: 72 h
Experimental: as §2

Nc1nc(F)nc2c1ncn2[C@@H]1O[C@H](CO)[C@@H](O)[C@@H]1O [Fludarabine]
Settings | normalised viability [%]
[1] | 107
[2] | 90.9
[3] | 101
[4] | 110
[5] | 103
[6] | 95.3
[7] | 109
[8] | 99.9
[22] | 72.2
[23] | 103
[24] | 90.4
[25] | 100
[26] | 75.3
[27] | 100

normalised viability [%]
Settings | 3 nM | 10 nM | 30 nM | 100 nM | 1000 nM | 10000 nM
[9] | – | 94 | – | – | 97.4 | 103
[10] | – | 85.1 | – | – | 97.1 | 81.5
[11] | – | 82.3 | – | – | 78.5 | 81.5
[12] | 71 | – | 82.6 | 87.7 | – | –
[13] | 100 | – | 101 | 91.9 | – | –
[14] | 91.1 | – | 93.2 | 96.7 | – | –
[15] | – | 102 | – | – | 82.6 | 89.5
[16] | – | 97.5 | – | – | 84.8 | 54.5
[17] | 107 | – | 91 | 96.4 | – | –
[18] | – | 112 | – | – | 99.2 | 87.2
[19] | – | 89 | – | – | 81.2 | 78.4
[20] | – | 101 | – | – | 106 | 100
[21] | – | 98.6 | – | – | 93.3 | 77.8

O=C(Cc1ccc(-c2ccc(OCCN3CCOCC3)cc2)cn1)NCc1ccccc1 [KX2-391]
Settings | normalised viability [%]
[1] | 27.8
[2] | 89.1
[3] | 88.1
[4] | 25.1
[5] | 108
[6] | 26.1
[7] | 47.6
[8] | 19.3
[22] | 20.4
[23] | 13.9
[24] | 36.3
[25] | 9.43
[26] | 46.6
[27] | 28.3

normalised viability [%]
Settings | 3 nM | 10 nM | 30 nM | 100 nM | 1000 nM | 10000 nM
[9] | – | 114 | – | – | 56 | 66.7
[10] | – | 95.5 | – | – | 17.5 | 20.7
[11] | – | 93.5 | – | – | 21.3 | 21.3
[12] | 94.8 | – | 91.3 | 16.8 | – | –
[13] | 114 | – | 105 | 20 | – | –
[14] | 83.8 | – | 80.5 | 16.1 | – | –
[15] | – | 95.6 | – | – | 62.3 | 58.7
[16] | – | 108 | – | – | 16.9 | 15.9
[17] | 112 | – | 97.7 | 43.2 | – | –
[18] | – | 94.4 | – | – | 15.4 | 20.5
[19] | – | 98.3 | – | – | 56.6 | 39.2
[20] | – | 91.2 | – | – | 40.7 | 26.9
[21] | – | 102 | – | – | 19.9 | 19.1
